Read-outs that look alike come from different tables or passages of the source.
Key:
DMBT1pbs1 = target: T1, DMBT1pbs1 (Homo sapiens, UniProt Q9UGM3); format: binding; parameters: key: +++: no difference in aggregation compared to reference; ++: moderate inhibition of aggregation over the entire time course or maximal aggregation delayed by 1-5-min compared to reference; +: strong inhibition of aggregation over the entire time course or maximal aggregation delayed by 5-10 min compared to reference; −: complete inhibition of aggregation after 10 min
T1 construct: purchased Eurogentec, Belgium
Description: Streptococcus mutans (Ingbritt), Streptococcus gordonii (HG 222 and DSM20568), Escherichia coli (F7 and OM36-1), and Helicobacter pylori (ATCC 43504) were gown and processed as described earlier. Salmonella typhimurium (strain SF1399: wild type; strain SF1195: Rc chemotype; strain SF1567: Rd1 chemotype; strain SF1398: Re chemotype) were kindly provided by Dr. Ben Appelmelk from the Free University of Amsterdam, The Netherlands, and were grown and processed as previously described for E. coli. The bacteria were diluted in the buffers depicted previously to a final OD700 of 0.5 or 1.0 corresponding to about 0.5 and 1.0×10^9 cells/ml respectively.
For quantitative measurements of bacterial aggregation, we added 200 μl peptide stock solution (1 mg/ml in 10% DMSO) diluted with 300 μl TBS containing 0.1% v/v Tween 20 and 1 mM CaCl2 (TBS-TC) to 500 μl of the respective bacterial suspensions to obtain final peptide concentrations of […]. As controls, we used bacterial suspensions, to which 200 μl 10% (v/v %) DMSO in H2O and 300 μl TBS-TC were added. Bacterial aggregation was monitored by measuring the optical density at 700 nm in intervals of 1 min for 1 h in a spectrophotometer (UVICON 930, Kontron Instruments). For the semi-quantitative high-throughput competition assays, we first determined the allowed pH range for DMBT1pbs1-mediated aggregation of S. gordonii and E. coli by using TBS-TC adjusted with either HCl or NaOH. […] For monitoring competitive effects, we preincubated 20 μl of the DMBT1pbs1 stock solution (20 μg) with 20 μl of the respective substance solutions in 48-well microtiter plates at room temperature (RT) for 2 min. As reference served 20 μl 10% (v/v) DMSO solution in H2O mixed with 20 μl of the solvents of the respective substances. Afterwards, 100 μl of S. gordonii or E. coli (resuspended in TBS-TC or TBS-T, respectively, for the calcium-free assays) solution was added simultaneously to each well using a multichannel pipette. Bacterial aggregation was compared to the reference by visual inspection over a time course of 10 min. The scoring system was: (+++) no difference in aggregation compared to reference. (++) moderate inhibition of aggregation over the entire time course or maximal aggregation delayed by 1-5-min compared to reference; (+) strong inhibition of aggregation over the entire time course or maximal aggregation delayed by 5-10 min compared to reference; (−) complete inhibition of aggregation after 10 min. Each experiment was at least done in triplicate.
Sucrose, maltose, dextrose, and the various salts tested were standard reagents obtained from Merck or Sigma. […] The following substances were obtained from Sigma with catalogue numbers in brackets: heparansulfate (H-7640), chondroitinsulfate B (C-3788), azoxymethane (A-9517), N-nitrosodiethlylamine (N-0258), streptococcus sanguis LTA (L-3765), Staphylococcus aureus LTA (L-2515), Escherichia coli LPS (L-3012), Klebsiella pneumoniae LPS (L-1770), Salmonella typhimurium LPS (L-6511), Salmonella minnesota LPS (chemotype Rd1; L-9391), L-α-phosphatidylcholine (P-279), CUROSURF™ with 80 mg/ml phospholipids from pig surfactant (54 mg/ml phosphatidylcholine and 30-5 mg/ml D-palmitoylphosphatidylcholine; overall: 99% polar phospholipids and 1% proteins) was obtained from Dey (Napa; Italy), and sIgA was purchased from Sigma. The dNTPs and the dNTP-Mix were from Roche Diagnostics. The DNA used in all experiments was the 4.7-kb plasmid pEGFP-N1 from Clontech.

Salmonella typhimurium = Salmonella typhimurium binding to immobilized DMBT1 or peptide; details: Rd1 and Re chemotype versus wild type
Description: Salivary DMBT1 (salivary agglutinin; DMBT1^SAG; hereafter referred to as DMBT1) was obtained from parotid saliva of healthy volunteer donors collected with Lashley cups. For confirmatory experiments of DMBT1 interaction partners, initial studies with Salmonella strains, and HIV studies we used DMBT1 purified to about 95% homogeneity by the procedure described before. The concentration was determined by the BCA Protein Assay Kit (Pierce) according to the instructions of the manufacturer. […] For partial purification, 50 ml parotid saliva was incubated for 0.5 to 1 h in ice water, in order to promote the formation of a precipitate. After centrifugation for 20 min (4° C.; 5,000 g), the pellet was resuspended in 1.0 to 2.5 ml PBS. In order to determine the DMBT1 concentrations within the samples, serial dilutions of the preparations were compared to serial dilutions of purified recombinant DMBT1 (rDMBT1) by ELISA and the adjusted concentrations were confirmed by Western blotting (see below).
Streptococcus mutans (Ingbritt), Streptococcus gordonii (HG 222 and DSM20568), Escherichia coli (F7 and OM36-1), and Helicobacter pylori (ATCC 43504) were gown and processed as described earlier. […]

[1] = target: T2, rDMBT1 binding to HIV-gp120 (Homo sapiens, UniProt Q9UGM3, G1295S/L1336F/T649M); assay: Effects of DSS and dextran on rDMBT1 binding to HIV-gp120; details: 100 μg/ml DSS or dextran; rDMBT1 2 μg/ml; gp120 1 μg/ml
T2 construct: made in house; host or cells: rDMBT1 from T-REx-CHO
Description: Values are means of five independent experiments.

T2 sequence (Q9UGM3 20-2413 T649M/G1295S/L1336F): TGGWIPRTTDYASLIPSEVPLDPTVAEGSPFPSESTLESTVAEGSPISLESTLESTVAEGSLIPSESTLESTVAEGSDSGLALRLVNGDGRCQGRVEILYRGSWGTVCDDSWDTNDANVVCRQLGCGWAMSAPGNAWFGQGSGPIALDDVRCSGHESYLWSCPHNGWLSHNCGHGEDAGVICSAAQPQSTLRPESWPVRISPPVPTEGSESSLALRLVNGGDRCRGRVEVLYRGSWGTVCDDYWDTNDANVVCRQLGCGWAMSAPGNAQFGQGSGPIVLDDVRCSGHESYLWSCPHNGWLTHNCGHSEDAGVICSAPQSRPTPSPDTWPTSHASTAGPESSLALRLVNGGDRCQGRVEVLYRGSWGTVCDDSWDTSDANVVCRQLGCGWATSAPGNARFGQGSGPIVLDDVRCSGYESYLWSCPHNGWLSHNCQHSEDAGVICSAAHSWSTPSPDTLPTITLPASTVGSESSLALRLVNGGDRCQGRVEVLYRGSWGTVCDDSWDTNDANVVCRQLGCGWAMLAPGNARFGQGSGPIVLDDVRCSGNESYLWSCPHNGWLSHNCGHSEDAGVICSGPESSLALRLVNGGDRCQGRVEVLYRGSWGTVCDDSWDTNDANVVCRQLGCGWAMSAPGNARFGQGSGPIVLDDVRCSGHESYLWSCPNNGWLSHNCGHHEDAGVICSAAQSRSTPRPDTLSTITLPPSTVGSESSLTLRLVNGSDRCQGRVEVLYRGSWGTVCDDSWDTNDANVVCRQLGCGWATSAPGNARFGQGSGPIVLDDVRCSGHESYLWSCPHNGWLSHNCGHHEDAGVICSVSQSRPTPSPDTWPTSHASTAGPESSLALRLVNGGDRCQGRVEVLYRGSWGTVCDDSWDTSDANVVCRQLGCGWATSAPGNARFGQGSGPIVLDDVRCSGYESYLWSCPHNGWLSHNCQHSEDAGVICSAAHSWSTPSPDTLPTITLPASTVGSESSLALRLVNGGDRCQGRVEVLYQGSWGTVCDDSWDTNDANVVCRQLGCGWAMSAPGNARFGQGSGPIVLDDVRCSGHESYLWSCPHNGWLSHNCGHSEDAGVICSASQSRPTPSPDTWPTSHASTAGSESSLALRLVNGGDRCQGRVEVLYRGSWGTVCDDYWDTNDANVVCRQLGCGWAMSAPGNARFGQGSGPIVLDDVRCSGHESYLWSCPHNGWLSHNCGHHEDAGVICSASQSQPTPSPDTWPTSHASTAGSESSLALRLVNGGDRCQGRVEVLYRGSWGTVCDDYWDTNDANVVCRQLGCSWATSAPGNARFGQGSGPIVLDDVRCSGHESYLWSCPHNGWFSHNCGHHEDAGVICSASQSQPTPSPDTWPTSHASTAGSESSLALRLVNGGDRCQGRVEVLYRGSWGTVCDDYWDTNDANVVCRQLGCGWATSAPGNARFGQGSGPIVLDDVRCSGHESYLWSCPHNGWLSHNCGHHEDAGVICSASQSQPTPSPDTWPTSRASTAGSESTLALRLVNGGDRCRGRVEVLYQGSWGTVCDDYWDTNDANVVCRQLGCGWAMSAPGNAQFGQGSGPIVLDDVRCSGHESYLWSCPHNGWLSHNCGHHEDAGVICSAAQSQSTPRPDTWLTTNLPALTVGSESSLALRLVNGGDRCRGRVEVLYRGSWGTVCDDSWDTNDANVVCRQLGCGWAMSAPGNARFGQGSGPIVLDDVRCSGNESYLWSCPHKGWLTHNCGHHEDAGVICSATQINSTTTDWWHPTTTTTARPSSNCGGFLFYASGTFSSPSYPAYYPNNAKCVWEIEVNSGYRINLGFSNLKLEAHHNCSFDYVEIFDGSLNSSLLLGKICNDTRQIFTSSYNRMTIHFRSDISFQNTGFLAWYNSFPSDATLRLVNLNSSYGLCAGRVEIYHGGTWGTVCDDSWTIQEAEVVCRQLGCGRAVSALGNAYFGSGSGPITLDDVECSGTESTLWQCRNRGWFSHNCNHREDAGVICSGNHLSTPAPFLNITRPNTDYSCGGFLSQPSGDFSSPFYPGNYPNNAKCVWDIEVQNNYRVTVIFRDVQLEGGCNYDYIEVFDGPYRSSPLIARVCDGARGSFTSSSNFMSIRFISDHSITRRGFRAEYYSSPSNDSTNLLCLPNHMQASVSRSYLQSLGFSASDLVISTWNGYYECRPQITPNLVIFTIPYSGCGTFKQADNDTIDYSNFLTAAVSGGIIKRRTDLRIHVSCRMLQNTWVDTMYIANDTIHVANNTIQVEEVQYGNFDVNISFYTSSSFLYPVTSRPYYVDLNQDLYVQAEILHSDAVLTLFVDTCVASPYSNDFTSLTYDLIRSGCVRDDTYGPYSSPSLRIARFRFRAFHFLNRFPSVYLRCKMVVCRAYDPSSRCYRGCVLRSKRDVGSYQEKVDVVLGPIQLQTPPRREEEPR

Question: With `OC[C@H]1O[C@H](O[C@H]2[C@H](O)[C@@H](O)C(O)O[C@@H]2CO)[C@H](O)[C@@H](O)[C@@H]1O` (mixture of isomers) [Maltose] as the compound, how does the “Aggregation of E. coli” value (DMBT1pbs1; substance 1-500 mM, pH co) read?
Answer: The value was “+++”.

Question: And the “Aggregation of S. gordonii” value (DMBT1pbs1; substance 1-500 mM, pH co)?
Answer: The value was “+++”.

Question: Which “Aggregation of E. coli” value (DMBT1pbs1; substance 1-500 mM, pH co) does the source give for `CN=[N+](C)[O-]` [Azoxymethane (AOM), Azoxymethane] here?
Answer: The value was “+++”.

Question: What about the “Aggregation of S. gordonii” value (DMBT1pbs1; substance 1-500 mM, pH co) of the same compound?
Answer: Its value is “+++”.

Question: Which results are given for `[Ba+2].[OH-].[OH-]` [BaOH]?
Answer: Aggregation of E. coli (DMBT1pbs1; substance 5-50 mM, pH co): +++; Aggregation of S. gordonii (DMBT1pbs1; substance 5-50 mM, pH co): +++

Question: How did the “Aggregation of E. coli” value (DMBT1pbs1; substance 1-250 mM, pH co) turn out when `NC(=O)CC[C@H](N)C(=O)O` [Glutamine] was run?
Answer: Its value is “+++”.

Question: What about the “Aggregation of S. gordonii” value (DMBT1pbs1; substance 1-250 mM, pH co) of the same compound?
Answer: Its value is “+++”.

Question: Which “Aggregation of E. coli” value (DMBT1pbs1; substance 1 mM, pH co) does the source give for `O=P([O-])([O-])O.[K+].[K+]` [K2HPO4] here?
Answer: Its value is “++”.

Question: What about the “Aggregation of S. gordonii” value (DMBT1pbs1; substance 1 mM, pH co) of the same compound?
Answer: Its value is “++”.

Question: With `O=P([O-])(O)O.[K+]` [KH2 PO4] as the compound, how does the “Aggregation of E. coli” value (DMBT1pbs1; substance 1-10 mM, pH co) read?
Answer: The value was “+”.

Question: What about the “Aggregation of S. gordonii” value (DMBT1pbs1; substance 1-10 mM, pH co) of the same compound?
Answer: Its value is “+”.

Question: What does the source list for `O=[N+]([O-])[O-].[K+]` [KNO3]?
Answer: Aggregation of E. coli (DMBT1pbs1; substance 500 mM, pH co): +; Aggregation of S. gordonii (DMBT1pbs1; substance 500 mM, pH co): +; Aggregation of E. coli (DMBT1pbs1; substance 1-100 mM, pH co): +++; Aggregation of S. gordonii (DMBT1pbs1; substance 1-100 mM, pH co): +++

Question: Which results are given for `CCN(CC)N=O` [N-nitrosodiethylamine (DEN), N-nitrosodiethylamine]?
Answer: Aggregation of E. coli (DMBT1pbs1; substance 1-50 mM, pH co): +++; Aggregation of S. gordonii (DMBT1pbs1; substance 1-50 mM, pH co): +++; Aggregation of E. coli (DMBT1pbs1; substance 100-500 mM, pH co): ++; Aggregation of S. gordonii (DMBT1pbs1; substance 100-500 mM, pH co): ++

Question: How did the “Aggregation of E. coli” value (DMBT1pbs1; substance 1 mM, pH co) turn out when `O=S(=O)([O-])[O-].[Na+].[Na+]` [Na2SO4] was run?
Answer: Its value is “+”.

Question: And the “Aggregation of S. gordonii” value (DMBT1pbs1; substance 1 mM, pH co)?
Answer: The value was “+”.

Question: What about the “Aggregation of E. coli” value (DMBT1pbs1; substance 50-500 mM, pH co) of the same compound?
Answer: Its value is “−”.

Question: What about the “Aggregation of S. gordonii” value (DMBT1pbs1; substance 50-500 mM, pH co) of the same compound?
Answer: The value was “−”.

Question: For `O=P([O-])([O-])[O-].[Na+].[Na+].[Na+]` [Na3PO4], which “Aggregation of E. coli” value (DMBT1pbs1; substance 1 mM, pH co) is on record?
Answer: The value was “++”.

Question: And the “Aggregation of S. gordonii” value (DMBT1pbs1; substance 1 mM, pH co)?
Answer: The value was “++”.

Question: What does the source list for `[Cl-].[Na+]` [NaCL]?
Answer: Aggregation of E. coli (DMBT1pbs1): +++ and +; Aggregation of S. gordonii (DMBT1pbs1): +++ and +

Question: For `[Na+].[OH-]` [NaOH], which “Aggregation of E. coli” value (DMBT1pbs1; substance 5-50 mM, pH co) is on record?
Answer: The value was “+++”.

Question: And the “Aggregation of S. gordonii” value (DMBT1pbs1; substance 5-50 mM, pH co)?
Answer: The value was “+++”.

Question: Which results are given for `OC[C@H]1O[C@@](CO)(O[C@H]2O[C@H](CO)[C@@H](O)[C@H](O)[C@H]2O)[C@@H](O)[C@@H]1O` [Sucrose]?
Answer: Aggregation of E. coli (DMBT1pbs1; substance 1-500 mM, pH co): +++; Aggregation of S. gordonii (DMBT1pbs1; substance 1-500 mM, pH co): +++

Question: With `Nc1ncnc2c1ncn2[C@H]1C[C@H](O)[C@@H](COP(=O)(O)OP(=O)(O)OP(=O)(O)O)O1` [dATP] as the compound, how does the “Aggregation of E. coli” value (DMBT1pbs1; substance 1-8 mM, pH co) read?
Answer: Its value is “++”.

Question: And the “Aggregation of S. gordonii” value (DMBT1pbs1; substance 1-8 mM, pH co)?
Answer: Its value is “++”.

Question: Which “Aggregation of E. coli” value (DMBT1pbs1; substance 1-8 mM, pH co) does the source give for `Nc1ccn([C@H]2C[C@H](O)[C@@H](COP(=O)(O)OP(=O)(O)OP(=O)(O)O)O2)c(=O)n1` [dCTP] here?
Answer: Its value is “++”.

Question: What about the “Aggregation of S. gordonii” value (DMBT1pbs1; substance 1-8 mM, pH co) of the same compound?
Answer: Its value is “++”.

Question: How did the “Aggregation of E. coli” value (DMBT1pbs1; substance 1-8 mM, pH co) turn out when `Nc1nc2c(ncn2[C@H]2C[C@H](O)[C@@H](COP(=O)(O)OP(=O)(O)OP(=O)(O)O)O2)c(=O)[nH]1` [dGTP] was run?
Answer: The value was “++”.

Question: And the “Aggregation of S. gordonii” value (DMBT1pbs1; substance 1-8 mM, pH co)?
Answer: The value was “++”.

Question: Which results are given for `Cc1cn([C@H]2C[C@H](O)[C@@H](COP(=O)(O)OP(=O)(O)OP(=O)(O)O)O2)c(=O)[nH]c1=O` [dTTP]?
Answer: Aggregation of E. coli (DMBT1pbs1; substance 1-8 mM, pH co): ++; Aggregation of S. gordonii (DMBT1pbs1; substance 1-8 mM, pH co): ++

Question: What does the source list for Aprolinin?
Answer: Aggregation of E. coli (DMBT1pbs1; substance 1-5 mg/ml, pH co): +++; Aggregation of S. gordonii (DMBT1pbs1; substance 1-5 mg/ml, pH co): +++

Question: For Chondroitin sulfate B, which “Aggregation of E. coli” value (DMBT1pbs1; substance 1-5 mg/ml, pH co) is on record?
Answer: Its value is “−”.

Question: And the “Aggregation of S. gordonii” value (DMBT1pbs1; substance 1-5 mg/ml, pH co)?
Answer: Its value is “−”.

Question: “DMBT1: purified DMBT1 from saliva (salivary agglutinin)” was tested. Which “binding of Salmonella typhimurium chemotypes” value (Salmonella typhimurium) did it give?
Answer: The value was “Enhanced binding of the Rd1 and Re chemotype”.

Question: How did the “Aggregation of E. coli” value (DMBT1pbs1; substance 1-5 mg/ml, pH co) turn out when Heparan sulfate was run?
Answer: The value was “−”.

Question: And the “Aggregation of S. gordonii” value (DMBT1pbs1; substance 1-5 mg/ml, pH co)?
Answer: The value was “−”.

Question: With “NH2-QGRVEVLYRGSWGTVC-COOH (H-QGRVEVLYRGSWGTVC-OH) [DMBT1-SRCRP2]” as the compound, how does the “binding of Salmonella typhimurium chemotypes” value (Salmonella typhimurium) read?
Answer: The value was “Enhanced binding of the Rd1 and Re chemotype”.

Question: With dextran as the compound, how does the “inhibition of rDMBT1 binding to immobilized HIV-gp120” value [1] read?
Answer: The value was “but not dextran, which lacks the sulfate groups, exerted an inhibitory effect”.

— patent US8017124B2, “Use of DMBT1 for capturing sulphate and phosphate group exposing agents” (priority 2004, dated 2011)
